pIC50: −log10 of the molar value.
What was measured:
[1] = system: Escherichia coli in vitro translation; details: E. coli in vitro translation, cited from earlier work
From the text: The accordance of structural features of paenilamicins with the translation inhibitor edeine (Extended Data Fig. 1c) led to the hypothesis that paenilamicins may also exert their antimicrobial activity by binding to the ribosome and inhibiting protein synthesis. […] The best understood context-specific translation inhibitors are those that target the large subunit, where their inhibitory action is influenced by the sequence of the nascent polypeptide chain being synthesized, for example, macrolides and ketolides[30]–[32] ...

[2] = system: E. coli ribosomes translating MLIFstop-mRNA; experiment: Toeprinting assay on MLIFstop-mRNA; assay type: biochemical; details: 0.5-100 µM, toeprinting in duplicate, 30 min at 37 °C
From the text: To investigate how paenilamicins inhibit translation, we generated PamB2-stalled ribosome complexes (PamB2-SRC) for single-particle cryo-EM analysis. Rather than forming complexes on vacant ribosomes, or with predefined functional states, we instead aimed to use more physiological complexes where translating ribosomes become stalled by PamB2. To achieve this, we performed in vitro translation reactions with E. coli ribosomes using the Met-Leu-Ile-Phe-stop-mRNA (MLIFstop-mRNA), a model template that we had previously used to successfully determine structures of drosocin-stalled ribosomal complexes. Toeprinting was used to monitor the position of ribosomes on the MLIFstop-mRNA in the presence of increasing concentrations of synthetic PamB2 (Extended Data Fig. 2). […] (Extended Data Fig. 2). […] (Extended Data Fig. 2).
Toeprinting reactions for Fig. 4b and Extended Data Fig. 2 were performed as described previously. Briefly, reactions were performed with 6 μl of PURExpress in vitro protein synthesis system (New England Biolabs). The reactions were carried out with different primers and templates (Supplementary Tables 2 and 3). The reactions contained 340 ng of the respective mRNA template and were supplemented with the different compounds as specified. The translation reactions were incubated for 30 min at 37 °C. […]

[3] = system: ribosomes translating ErmBL mRNA; experiment: Toeprinting on ErmBL mRNA with mutated second codon (Fig. 4b); assay type: biochemical, E. coli; details: 50 µM, in duplicate
Procedure: Toeprinting reactions for Fig. 4b and Extended Data Fig. 2 were performed as described previously. Briefly, reactions were performed with 6 μl of PURExpress in vitro protein synthesis system (New England Biolabs). The reactions were carried out with different primers and templates (Supplementary Tables 2 and 3). The reactions contained 340 ng of the respective mRNA template and were supplemented with the different compounds as specified. The translation reactions were incubated for 30 min at 37 °C. The reverse transcription reaction was carried out using AMV RT and primer NV*1-Alexa 647 (5′-[…]-3′). The translation reactions were incubated with the reverse transcriptase and the primer for 20 min at 37 °C. mRNA degradation was carried out by the addition of 1 µl of 5 M NaOH. The reactions were neutralized with 0.7 µl of 25% HCl, and nucleotide removal was performed with the QIAquick Nucleotide Removal Kit (Qiagen). The samples were dried under vacuum for 2 h at 60 °C for subsequent gel electrophoresis. The 6% acrylamide gels were scanned on a Typhoon scanner (GE Healthcare).

fungi = details: cited from earlier work
From the text: In the A-site, PamB2 contacts not only with 16S rRNA nucleotides in h44, but also A1913 from H69 of the 23S rRNA, and, in contrast to the P-site, the compound makes extensive interactions with the A-site tRNA, albeit less with the mRNA codon (Fig. 2c–f). Interactions of PamB2 with the A-site tRNA revolve around nucleotides ct^6A37 and A38, which are located in the anticodon-stem loop, directly adjacent to the anticodon (34CAU36) (Fig. 2e,f). Specifically, three direct hydrogen bonds are possible with A38 (Fig. 2e). Interactions with ct^6A37 are indirect, being mediated by water W6, which is co ...

[4] = system: eukaryotic in vitro translation; experiment: Eukaryotic in vitro translation assay (Rabbit Reticulocyte Lysate System); assay type: biochemical; details: 0.01-10 µM
Procedure: The effect of PamB2 on eukaryotic translation was determined using the Rabbit Reticulocyte Lysate System (Promega) as previously described. Briefly, 6-μl reactions, with or without PamB2 were mixed according to the manufacturer’s description and incubated for 30 min at 32 °C with shaking (600 rpm). Each reaction was stopped by adding 3 μl of cycloheximide (600 μM). All samples were diluted with 40 μl of Luciferase assays substrate (Promega) into a white 96-well chimney flat-bottom microtiter plate (Greiner). The luminescence was then measured using a Tecan Infinite M1000 plate reader. Relative values were determined by defining the luminescence value of the sample without inhibitor as 100%.

paenilamicin B2 [PamB2]
inhibition of in vitro translation / protein synthesis (in words) [1]: potent inhibitor of protein synthesis
pIC50 ([1]; read-out: half-inhibitory concentration (IC50)): 6.40
ribosome stalling on MLIFstop-mRNA [2]: gradual loss of ribosomes at the AUG codon and an increase in ribosomes stalled one codon further with the UUG (Leu) codon in the P-site
inhibition of first translocation, A-site codon AUG ([3]; ErmBL mRNA second codon AUG): clear toeprint bands
inhibition of first translocation, A-site codon CUG ([3]; ErmBL mRNA second codon CUG (tRNALeu, m1G37)): appeared to be stronger than with U, it was reproducibly weaker than with A and G
inhibition of first translocation, A-site codon GUG ([3]; ErmBL mRNA second codon GUG): appeared to be the strongest
inhibition of first translocation, A-site codon UUG ([3]; ErmBL mRNA second codon UUG): little to no inhibition of the first translocation event
antifungal activity (fungi): antifungal activity
inhibition of eukaryotic in vitro translation (in words) [4]: efficiently inhibits eukaryotic in vitro translation

From paper PMC11581978, “Paenilamicins are context-specific translocation inhibitors of protein synthesis” (Nature Chemical Biology, 2024)
